We go through four compounds from US20230265151A1, “GIP/GLP1 CO-AGONIST COMPOUNDS” (priority 2020, published 2023).

Read-outs that look alike come from different tables or passages of the source.

Type in all cases: cell-based
Test [1] deals with T1, hGIPR (Homo sapiens, UniProt P48546).
T1 construct: expressed in transfected cells
T1 sequence (P48546 22-466): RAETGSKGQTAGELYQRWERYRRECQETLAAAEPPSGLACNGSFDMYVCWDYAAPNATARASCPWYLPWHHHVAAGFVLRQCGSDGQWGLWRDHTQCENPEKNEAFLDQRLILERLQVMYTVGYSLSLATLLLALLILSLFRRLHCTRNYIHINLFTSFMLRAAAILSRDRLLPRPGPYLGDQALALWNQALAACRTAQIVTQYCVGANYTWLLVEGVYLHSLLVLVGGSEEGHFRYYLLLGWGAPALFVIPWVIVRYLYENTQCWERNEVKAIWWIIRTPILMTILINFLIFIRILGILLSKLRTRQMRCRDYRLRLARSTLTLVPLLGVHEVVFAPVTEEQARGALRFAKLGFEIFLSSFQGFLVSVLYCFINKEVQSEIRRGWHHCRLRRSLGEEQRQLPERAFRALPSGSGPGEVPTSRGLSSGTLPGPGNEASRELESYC
As to the kind of experiment: Functional cAMP formation (HTRF) in HEK-293 clonal cells expressing hGIPR, 0.1% bovine casein, without or with 1.0% human serum albumin. The settings on record: for EC50: geometric mean; for Emax: percent of maximal response to GIP(1-42)NH2. The essentials: (§1)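 Readings of the HTRF 665/620 nm ratio, which falls as cAMP rises, were converted to nM cAMP using a standard curve after 30 min peptide exposure at 37° C.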

For test [2], the target named is hGLP-1R (Homo sapiens, UniProt P43220). As to the kind of experiment: Functional cAMP formation (HTRF) in HEK-293 clonal cells expressing hGLP-1R, 0.1% bovine casein, without or with 1.0% human serum albumin. More on the design: expressed in transfected cells. The settings on record: 37° C.; for EC50: cAMP; for Emax: percent of maximal response to GLP-1(7-36)NH2, read-out: hGLP-1R Emax, % ± SEM. The method in brief: as §1
Sequence of hGLP-1R (P43220 24-463): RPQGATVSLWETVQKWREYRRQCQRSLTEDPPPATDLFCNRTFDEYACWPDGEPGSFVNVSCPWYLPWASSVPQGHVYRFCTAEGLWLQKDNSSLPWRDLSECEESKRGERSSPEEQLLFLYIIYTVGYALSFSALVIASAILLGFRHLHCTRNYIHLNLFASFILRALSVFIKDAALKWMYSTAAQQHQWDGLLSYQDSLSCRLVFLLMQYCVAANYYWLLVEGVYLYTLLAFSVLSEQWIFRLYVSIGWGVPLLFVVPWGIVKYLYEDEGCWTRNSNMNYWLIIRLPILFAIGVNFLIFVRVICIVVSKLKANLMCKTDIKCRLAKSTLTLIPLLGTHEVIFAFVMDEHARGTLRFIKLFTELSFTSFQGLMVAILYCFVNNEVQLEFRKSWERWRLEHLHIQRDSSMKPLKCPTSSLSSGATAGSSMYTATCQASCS

The target of test [3] is T2, hGCGR (Homo sapiens, UniProt P47871).
T2 construct: expressed in transfected cells
T2 sequence (P47871 26-477): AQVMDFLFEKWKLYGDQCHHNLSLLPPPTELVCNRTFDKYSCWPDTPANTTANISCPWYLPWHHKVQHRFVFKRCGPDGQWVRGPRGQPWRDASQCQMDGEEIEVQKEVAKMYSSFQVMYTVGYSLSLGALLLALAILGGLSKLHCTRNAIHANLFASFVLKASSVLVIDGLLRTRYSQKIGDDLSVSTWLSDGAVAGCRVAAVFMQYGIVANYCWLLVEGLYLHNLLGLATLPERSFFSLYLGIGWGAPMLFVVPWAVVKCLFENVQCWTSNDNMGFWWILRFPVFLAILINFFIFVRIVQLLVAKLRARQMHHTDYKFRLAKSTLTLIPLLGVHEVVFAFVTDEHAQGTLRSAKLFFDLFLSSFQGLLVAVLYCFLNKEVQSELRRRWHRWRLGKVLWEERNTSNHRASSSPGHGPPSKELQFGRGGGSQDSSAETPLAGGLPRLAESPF
Put plainly: Functional cAMP formation (HTRF) in HEK-293 clonal cells expressing hGCGR, 0.1% bovine casein, without or with 1.0% human serum albumin. The settings on record: 37° C. The method in brief:
as §1

[4] abbreviates: cAMP, 37° C., 0.1% bovine casein (no human serum albumin), read-out: hGIPR EC50, nM (SEM, n).
Setting [5] is: 0.1% bovine casein (no human serum albumin), geometric mean, read-out: hGLP-1R EC50, nM (SEM, n).
[6] abbreviates: cAMP, 0.1% bovine casein (no human serum albumin), geometric mean, read-out: hGCGR EC50, nM (SEM, n).

Consider `CC[C@H](C)[C@H](NC(=O)[C@H](CCCN)NC(=O)[C@H](CC(=O)O)NC(=O)[C@H](CC(C)C)NC(=O)[C@](C)(CC(C)C)NC(=O)[C@@H](NC(=O)C(C)(C)NC(=O)[C@H](Cc1ccc(O)cc1)NC(=O)[C@H](CC(=O)O)NC(=O)[C@H](CO)NC(=O)[C@@H](NC(=O)[C@](C)(Cc1ccccc1F)NC(=O)[C@@H](NC(=O)CNC(=O)[C@H](CCC(=O)O)NC(=O)C(C)(C)NC(=O)[C@@H](N)Cc1ccc(O)cc1)[C@@H](C)O)[C@@H](C)O)[C@@H](C)CC)C(=O)N[C@@H](C)C(=O)N[C@@H](CCC(N)=O)C(=O)NC(C)(C)C(=O)N[C@@H](CCC(=O)O)C(=O)N[C@@H](Cc1ccccc1)C(=O)N[C@H](C(=O)N[C@@H](CCCCNC(=O)COCCOCCNC(=O)CC[C@H](NC(=O)CCCCCCCCCCCCC(=O)O)C(=O)O)C(=O)N[C@@](C)(Cc1ccc(O)cc1)C(=O)N[C@@H](CC(C)C)C(=O)N[C@H](C(=O)N[C@@H](CCCCNC(=O)COCCOCCNC(=O)CC[C@H](NC(=O)CCCCCCCCCCCCC(=O)O)C(=O)O)C(=O)NCC(=O)NCC(=O)N1CCC[C@H]1C(=O)N[C@@H](CO)C(=O)N[C@@H](CO)C(=O)NCC(=O)N[C@@H](C)C(=O)N1CCC[C@H]1C(=O)N1CCC[C@H]1C(=O)N1CCC[C@H]1C(=O)N[C@@H](CO)C(N)=O)[C@@H](C)CC)[C@@H](C)CC` [Example 369], for which the results for the EC50 in test [1] (setting [4]), in test [2] (setting [5]) and in test [3] (setting [6]) were 0.037 nM, 0.555 nM and above 9950 nM, respectively.
As for `CC[C@H](C)[C@H](NC(=O)[C@H](CC(C)C)NC(=O)[C@](C)(Cc1ccc(O)cc1)NC(=O)[C@@H](CCC(=O)O)NC(=O)[C@@H](NC(=O)[C@H](Cc1ccccc1)NC(=O)[C@H](CCCCNC(=O)COCCOCCNC(=O)CC[C@H](NC(=O)CCCCCCCCCOc1ccc(C(=O)O)cc1)C(=O)O)NC(=O)C(C)(C)NC(=O)[C@H](CCC(N)=O)NC(=O)[C@H](C)NC(=O)[C@H](CCCCNC(=O)COCCOCCNC(=O)CC[C@H](NC(=O)CCCCCCCCCOc1ccc(C(=O)O)cc1)C(=O)O)NC(=O)[C@H](CCCN)NC(=O)[C@H](CC(=O)O)NC(=O)[C@H](CC(C)C)NC(=O)[C@](C)(CC(C)C)NC(=O)[C@@H](NC(=O)C(C)(C)NC(=O)[C@H](Cc1ccc(O)cc1)NC(=O)[C@H](CC(=O)O)NC(=O)[C@H](CO)NC(=O)[C@@H](NC(=O)[C@](C)(Cc1ccccc1F)NC(=O)[C@@H](NC(=O)CNC(=O)[C@H](CCC(=O)O)NC(=O)C(C)(C)NC(=O)[C@@H](N)Cc1ccc(O)cc1)[C@@H](C)O)[C@@H](C)O)[C@@H](C)CC)[C@@H](C)CC)C(=O)N[C@@H](CCC(=O)O)C(=O)NCC(=O)NCC(=O)N1CCC[C@H]1C(=O)N[C@@H](CO)C(=O)N[C@@H](CO)C(=O)NCC(=O)N[C@@H](C)C(=O)N1CCC[C@H]1C(=O)N1CCC[C@H]1C(=O)N1CCC[C@H]1C(=O)N[C@@H](CO)C(N)=O` [Example 372], the maximum response (Emax) in test [1] (HEK293, read-out: hGIPR Emax, % ± SEM, cAMP, 37° C., 0.1% bovine casein and 1.0% human serum albumin) was determined as 90.6%; in test [1] (HEK293, read-out: hGIPR Emax, % ± SEM, cAMP, 37° C., 0.1% bovine casein, arithmetic mean), 97.3%. Besides, the concentration giving a half-maximal response (EC50) was 0.0112 nM in test [1] (hGIPR EC50, nM (SEM, n), cAMP, 37° C., 0.1% bovine casein (no human serum albumin)); 0.291 nM in test [2] (hGLP-1R EC50, nM (SEM, n), 0.1% bovine casein (no human serum albumin), geometric mean); above 9950 nM in test [3] (hGCGR EC50, nM (SEM, n), cAMP, 0.1% bovine casein (no human serum albumin), geometric mean); above 9950 nM in test [3] (hGCGR EC50, nM (SEM, n), cAMP, 0.1% bovine casein and 1.0% human serum albumin, geometric mean (SEM, n)).
For `CCCCCCCCCCCC(=O)N[C@@H](CCC(=O)NCCOCCOCC(=O)NCCOCCOCC(=O)NCCCC[C@H](NC(=O)[C@H](CCCN)NC(=O)[C@H](CC(=O)O)NC(=O)[C@H](CC(C)C)NC(=O)[C@](C)(CC(C)C)NC(=O)[C@@H](NC(=O)C(C)(C)NC(=O)[C@H](Cc1ccc(O)cc1)NC(=O)[C@H](CC(=O)O)NC(=O)[C@H](CO)NC(=O)[C@@H](NC(=O)[C@](C)(Cc1ccccc1F)NC(=O)[C@@H](NC(=O)CNC(=O)[C@H](CCC(=O)O)NC(=O)C(C)(C)NC(=O)[C@@H](N)Cc1ccc(O)cc1)[C@@H](C)O)[C@@H](C)O)[C@@H](C)CC)C(=O)N[C@@H](C)C(=O)N[C@@H](CCC(N)=O)C(=O)NC(C)(C)C(=O)N[C@@H](CCCCNC(=O)COCCOCCNC(=O)COCCOCCNC(=O)CC[C@H](NC(=O)CCCCCCCCCCC)C(=O)O)C(=O)N[C@@H](Cc1ccccc1)C(=O)N[C@H](C(=O)N[C@H](CCC(=O)O)C(=O)N[C@@](C)(Cc1ccc(O)cc1)C(=O)N[C@@H](CC(C)C)C(=O)N[C@H](C(=O)N[C@@H](CCC(=O)O)C(=O)NCC(=O)NCC(=O)N1CCC[C@H]1C(=O)N[C@@H](CO)C(=O)N[C@@H](CO)C(=O)NCC(=O)N[C@@H](C)C(=O)N1CCC[C@H]1C(=O)N1CCC[C@H]1C(=O)N1CCC[C@H]1C(=O)N[C@@H](CO)C(N)=O)[C@@H](C)CC)[C@@H](C)CC)C(=O)O` [Example 300], the concentration giving a half-maximal response (EC50) was 1.25 nM in test [1] (0.1% bovine casein and 1.0% human serum albumin, 37° C., read-out: hGIPR EC50, nM (SEM, n)); 0.0128 nM in test [1] (setting [4]); 0.194 nM in test [2] (setting [5]); above 9950 nM in test [3] (0.1% bovine casein and 1.0% human serum albumin, geometric mean, read-out: hGCGR EC50, nM (SEM, n)); above 9950 nM in test [3] (setting [6]). Moreover, the Emax in test [1] (HEK293, 0.1% bovine casein and 1.0% human serum albumin, 37° C., read-out: hGIPR Emax, % ± SEM) turned out to be 91.5%; in test [2] (HEK293, 0.1% bovine casein and 1.0% human serum albumin), 109%.
As to `CCCCCCCCCCCC(=O)N[C@@H](CCC(=O)NCCOCCOCC(=O)NCCCC[C@H](NC(=O)[C@H](CO)NC(=O)[C@@H]1CCCN1C(=O)[C@@H]1CCCN1C(=O)[C@@H]1CCCN1C(=O)[C@H](C)NC(=O)CNC(=O)[C@H](CO)NC(=O)[C@H](CO)NC(=O)[C@@H]1CCCN1C(=O)CNC(=O)CNC(=O)[C@H](CCC(=O)O)NC(=O)[C@@H](NC(=O)[C@H](CC(C)C)NC(=O)[C@](C)(Cc1ccc(O)cc1)NC(=O)[C@@H](CCC(=O)O)NC(=O)[C@@H](NC(=O)[C@H](Cc1ccccc1)NC(=O)[C@H](CCC(=O)O)NC(=O)C(C)(C)NC(=O)[C@H](CCC(N)=O)NC(=O)[C@H](C)NC(=O)[C@H](CCCCNC(=O)COCCOCCNC(=O)CC[C@H](NC(=O)CCCCCCCCCCC)C(=O)O)NC(=O)[C@H](CCCN)NC(=O)[C@H](CC(=O)O)NC(=O)[C@H](CC(C)C)NC(=O)[C@](C)(CC(C)C)NC(=O)[C@@H](NC(=O)C(C)(C)NC(=O)[C@H](Cc1ccncc1)NC(=O)[C@H](CC(=O)O)NC(=O)[C@H](CO)NC(=O)[C@@H](NC(=O)[C@](C)(Cc1ccccc1F)NC(=O)[C@@H](NC(=O)CNC(=O)[C@H](CCC(=O)O)NC(=O)C(C)(C)NC(=O)[C@@H](N)Cc1ccc(O)cc1)[C@@H](C)O)[C@@H](C)O)[C@@H](C)CC)[C@@H](C)CC)[C@@H](C)CC)C(N)=O)C(=O)O` [Example 428], the Emax in test [1] (HEK293, cAMP, 37° C., 0.1% bovine casein and 1.0% human serum albumin, read-out: hGIPR Emax, % ± SEM) was 93.6%; in test [1] (HEK293, cAMP, 37° C., 0.1% bovine casein, arithmetic mean, read-out: hGIPR Emax, % ± SEM), 95.5%; in test [2] (HEK293, cAMP, 0.1% bovine casein and 1.0% human serum albumin), 105%. In addition, the EC50 in test [1] (setting [4]) is 0.00797 nM; in test [2] (setting [5]), 0.102 nM; in test [2] (0.1% bovine casein and 1.0% human serum albumin, geometric mean (SEM, n), read-out: hGLP-1R EC50, nM (SEM, n)) it was 10.2 nM; in test [3] (setting [6]), above 9950 nM; in test [3] (cAMP, 0.1% bovine casein and 1.0% human serum albumin, geometric mean (SEM, n), read-out: hGCGR EC50, nM (SEM, n)), above 9950 nM.
